The record followed here is patent publication USRE43274E1, “Fluorinated photosensitizers related to chlorins and bacteriochlorins for photodynamic therapy” (Health Research, Inc., priority 2002, dated 2012).

Data set [1] is described as follows: Stability of Schiff base 17 / amine 18 (in vivo reflectance spectroscopy). The following applies: 17: in vivo, converted into acetyl analog 15, determined by in vivo reflectance spectroscopy. The method, then: For example, when the reaction was performed at elevated temperature, the N-fluorinated derivative 15 and the corresponding Schiff base 17 (obtained from the reaction of the 3-acetyl group with an amine) was isolated in almost equal ratio. However, at low temperature, 3-acetyl-N-substituted-bacteriopurpurinimide 15 was isolated as a major product. Bacteriochlorin 15 on reaction with sodium borohydride and then with HBr gas followed by a reaction with n-butyl alcohol produced the corresponding butyl ether derivative 16. […] However, reduction of 17 with sodium borohydride at room temperature produced stable amine 18. See Scheme 2.

The subject of data set [2] is RIF tumors. In words: In vivo photosensitizing (PDT) efficacy, tumor response in C3H mice transplanted with RIF tumors. Also noted: species or system mouse. The method, then:
In brief, C3H/HEJ mice were subjected to intradermal injection with 2×10^5 RIF cells in […] HBSS w/o Ca^+2 and magnesium, into the flank and allowed to grow until they were 4-5 mm in diameter. The day before tumors were treatment size, the mice were injected with variable doses of substantially pure photosensitizers (1.0 mg/kg, 0.4 mg/kg). […] The mice (6 mice/group in two groups) were checked daily, the tumors were measured using two orthogonal measurements L and W (perpendicular to L) and the volumes were calculated using the formula V=L×W^2/2 and recorded. Mice were considered cured if there was no palpable tumor at 90 days post-PDT treatment.
In the control group, six mice were exposed to light without injecting any photosensitizer.
The in vivo photosensitizing efficacy of bacteriochlorins 16 and 18 was determined in C3H mice (5 mice/group) at variable concentration up to 1.0 μmol/Kg.

Data set [3] can be described thus: Electronic absorption spectra in dichloromethane. The class given is physicochemical. The method, then:
The electronic absorption spectra of PHOTOFRIN® (a porphyrin analog), HPPH (a chlorin bearing a five-membered isocyclic ring) and the purpurinimide 9 (a chlorin with an expanded, six-membered fused imide ring) were measured in dichloromethane at the same molar concentrations.

The mark [4] stands for this setting: dose 1.0 μmol/Kg, day 90, C3H mice.

Turning to `CCC1c2cc3[nH]c4c(c5nc(cc6[nH]c(cc(n2)C1C)c(C(C)NCc1cc(C(F)(F)F)cc(C(F)(F)F)c1)c6C)[C@@H](C)[C@@H]5CCC(=O)OC)C(=O)N(Cc1cc(C(F)(F)F)cc(C(F)(F)F)c1)C(=O)c4c3C` (stereo partly shown) [compound 18], in data set [1], the stability result is “stable”. In addition, in data set [2] (setting [4]), the mice tumor free is on record as 3/5 and the tumor response amounted to 60%.

HPPH: the “red-shift compared with PHOTOFRIN” value in data set [3] was 30 nm. Further, in data set [3] (same molar concentrations), the “ε (long wavelength absorption)” value is 45,000 and the “λmax (long wavelength absorption)” value came out at 660 nm.

Take “purpurin-18-N-butyl-3-O-{1′-3″,5″-bis(trifluoromethyl)-benzyl ether}imide [compound 12]”: the tumor response in data set [2] (dose 0.4 mg/kg, light 706 nm, 135 J/cm2 at 24 hours post-injection, day 90, C3H/HeJ mice) amounted to 66%.
